For data set [1], the system named is GABAA receptors of HDC−/− TMN neurons. In words: GABA-evoked whole-cell currents in TMN neurons from HDC−/− mice. To be noted: read-out: IC50 of inhibition of maximal GABA (0.5 mM) responses; adult HDC−/− mice, n = 5. It is filed as cell-based, mouse. On the procedure:
(§1) Recordings from histaminergic neurons in male Wistar rat (22–26 day old) or 30–60 day old mouse (SV129, histidine decarboxylase deficient HDC−/− or their wild type littermates) hypothalamic slices were performed as previously described. Slices were obtained between 9 and 11 a.m. In the beginning of whole-cell voltage clamp recordings TMN neurons were identified with the help of DIC microscopy and electrophysiological criteria as previously described. Inhibitory postsynaptic currents (IPSCs) were evoked by local stimulation through a bipolar stainless-steel stimulating electrode (50 µm; WPI, UK). The stimulation of axonal endings coming to TMN from ventrolateral preoptic area (VLPO) was done as described in [22]. […] Individual neurons were separated by vibrodissociation after brief preincubation with papain from the hypothalamic slices of mice or rats and identified as TMN neurons according to their size and shape. Identification was confirmed post hoc with the single-cell RT-PCR (all data presented in the manuscript were obtained from histidine decarboxylase-expressing neurons), [40]. TMN neurons from HDC−/− mice were identified by the expression of peripherin [16]. Whole-cell voltage-clamp recordings from isolated neurons were done with an EPC-9 amplifier and TIDA for Windows (HEKA, Lambrecht, Germany) at room temperature. Membrane potentials were not corrected for liquid junction potential (5.6 mV, calculated with LJPCalc, Barry, 1994). The intracellular solution was composed of (in mM) 140 KCl, 2 MgCl2, 0.5 CaCl2, 5 EGTA, 2 ATP and 10 HEPES (pH 7.2 adjusted with NaOH). A fast perfusion technique was used for application of ligands and modulators of fast ionotropic receptors, [41]. […] EC50 is the ligand concentration producing a half-maximal response, [ligand] is ligand concentration, and n is the Hill slope. Hill coefficients were obtained from the slope of the log/log plot of the dose-response curves. […] Steady-state amplitudes of the responses were used for the construction of dose-response plots if not mentioned otherwise.

The subject of data set [2] is isolated TMN neurons (sIPSCs). In words: sIPSCs in acutely isolated and cultured neurons. It is filed as cell-based. On the procedure:
as §1

For data set [3], the target named is T1, α1Q241L mutant α1β2γ2L GABAA receptors (UniProt P22723+P62813+P63138, Q268L).
T1 construct: expressed in transfected cells; host or cells: HEK293
T1 sequence (P62813 28-455 Q268L): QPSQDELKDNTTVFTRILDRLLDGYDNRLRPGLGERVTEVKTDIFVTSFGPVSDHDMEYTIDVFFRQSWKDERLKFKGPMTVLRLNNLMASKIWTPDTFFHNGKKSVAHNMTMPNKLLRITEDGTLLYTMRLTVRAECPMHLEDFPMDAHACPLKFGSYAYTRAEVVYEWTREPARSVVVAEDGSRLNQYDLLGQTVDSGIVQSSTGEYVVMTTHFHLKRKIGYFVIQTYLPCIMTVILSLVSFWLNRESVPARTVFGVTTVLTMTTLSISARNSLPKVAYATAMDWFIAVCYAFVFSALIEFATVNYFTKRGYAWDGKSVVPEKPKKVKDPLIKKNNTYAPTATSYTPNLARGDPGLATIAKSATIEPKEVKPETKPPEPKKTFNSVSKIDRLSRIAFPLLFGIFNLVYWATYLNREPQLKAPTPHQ
T1 sequence (P63138 25-474 limits assumed): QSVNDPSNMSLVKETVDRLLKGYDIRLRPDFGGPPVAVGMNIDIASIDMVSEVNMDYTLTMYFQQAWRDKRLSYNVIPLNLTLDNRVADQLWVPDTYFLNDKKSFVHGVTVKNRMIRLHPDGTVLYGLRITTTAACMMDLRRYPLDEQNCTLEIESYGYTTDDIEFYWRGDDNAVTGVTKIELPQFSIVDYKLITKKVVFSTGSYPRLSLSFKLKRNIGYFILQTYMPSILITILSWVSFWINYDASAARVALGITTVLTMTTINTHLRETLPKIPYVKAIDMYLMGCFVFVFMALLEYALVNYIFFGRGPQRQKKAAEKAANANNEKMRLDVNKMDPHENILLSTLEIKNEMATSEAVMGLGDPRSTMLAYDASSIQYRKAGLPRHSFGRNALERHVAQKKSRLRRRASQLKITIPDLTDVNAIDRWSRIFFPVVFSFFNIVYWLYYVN
T1 sequence (P22723 39-474): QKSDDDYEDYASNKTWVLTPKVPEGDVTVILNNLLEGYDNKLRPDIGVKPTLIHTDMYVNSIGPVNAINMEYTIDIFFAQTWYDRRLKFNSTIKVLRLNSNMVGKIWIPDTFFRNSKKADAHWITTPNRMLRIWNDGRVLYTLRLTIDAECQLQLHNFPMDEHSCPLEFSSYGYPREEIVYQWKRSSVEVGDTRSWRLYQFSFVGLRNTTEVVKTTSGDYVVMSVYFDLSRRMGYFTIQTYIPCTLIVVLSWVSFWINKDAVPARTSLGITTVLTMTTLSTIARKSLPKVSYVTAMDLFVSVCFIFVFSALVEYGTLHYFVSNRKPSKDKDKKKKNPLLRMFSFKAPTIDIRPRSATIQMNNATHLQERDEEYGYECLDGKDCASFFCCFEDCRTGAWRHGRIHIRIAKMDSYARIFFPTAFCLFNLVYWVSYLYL
In words: Patch-clamp of mutant α1Q241L-containing α1β2γ2L GABAAR in HEK293 cells. It is filed as cell-based, rat α1Q241L, rat β2, mouse γ2L. To be noted: UDCA 100 µM, 500 µM GABA, n = 5. The procedure: (§2) HEK 293 cells were obtained from DSM (Deutsche Sammlung von Mikroorganismen und Zellkulturen GmbH, DSM, Braunschweig). They were grown and maintained according to published standard protocols. Briefly, cells were grown in minimal essential medium supplemented with 10% fetal bovine serum, 100units/ml penicillin and streptomycin and 2 mM L-glutamine and splitted once per week. Semiconfluent cells were transfected on the third day after splitting with the help of Lipofectamine 2000 (Invitrogen), recordings were done 48–72 hrs after transfection.
(§3) The GABAAR subunit cDNAs, generously donated by G.Gisselmann (rat α1, mouse γ2L, rat β1, β2 and human β3 [26]) and J.H. Steinbach (rat α1V256S [28] and rat α1Q241L [44]), were subcloned into pcDNA3 (Invitrogen, Karlsruhe, Germany) and applied in a ratio 1∶1∶1 for the α1βxγ2L receptor and 1∶1 for α1β3 or β3γ2L receptors. […] For each receptor type patch clamp recordings were obtained from at least three separate transfections. Whole-cell patch clamp recordings were done in a similar extracellular solution as for the native cells (see above) except that the concentration of MgCl2 was reduced to 1.2 mM. Intracellular electrodes contained 140 mM CsCl (instead of KCl), pH adjusted with CsOH. The voltage was held at −40 mV.
For orientation: The patch-clamp technique gives a direct electrical read-out from membranes.

A further data set deals with TGR5. Also noted: method as in PMID 12524422. To be noted: cited from earlier work.
On the set-up of data set [4]: method as in PMID 11248487. The settings on record: volunteers (men), single oral dose ∼12 mg/kg; cited from earlier work.
In a further data set the target is T2, α1β3 GABAA receptors (UniProt P28472+P62813).
T2 construct: expressed in transfected cells; host or cells: HEK293
T2 sequence (P62813 28-455): as the sequence (P62813 28-455 Q268L) above, with L241Q counted along it
T2 sequence (P28472 26-473): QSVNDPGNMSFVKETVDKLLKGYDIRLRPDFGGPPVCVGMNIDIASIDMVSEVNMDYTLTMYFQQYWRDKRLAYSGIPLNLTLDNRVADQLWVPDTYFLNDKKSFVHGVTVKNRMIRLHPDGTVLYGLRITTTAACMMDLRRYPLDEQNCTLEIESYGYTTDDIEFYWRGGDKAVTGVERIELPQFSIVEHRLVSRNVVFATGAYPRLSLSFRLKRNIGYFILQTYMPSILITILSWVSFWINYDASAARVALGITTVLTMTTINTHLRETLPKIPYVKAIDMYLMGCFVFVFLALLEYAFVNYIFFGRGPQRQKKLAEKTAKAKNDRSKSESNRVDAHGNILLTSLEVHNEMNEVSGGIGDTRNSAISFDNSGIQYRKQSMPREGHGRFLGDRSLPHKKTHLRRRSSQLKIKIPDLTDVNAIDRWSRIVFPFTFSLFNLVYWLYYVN
The data set can be described thus: Patch-clamp of recombinant α1β3 GABAAR in HEK293 cells. Type of data set: cell-based, rat α1, human β3. On the procedure:
as §2, §3

For data set [5], the target named is T3, α1β2γ2L GABAA receptors (WT) (UniProt P22723+P62813+P63138).
T3 construct: expressed in transfected cells; host or cells: HEK293
T3 sequence (P62813 28-455): as the sequence (P62813 28-455 Q268L) above, with L241Q counted along it
T3 sequence (P63138 25-474 limits assumed): as the sequence (P63138 25-474 limits assumed) above
T3 sequence (P22723 39-474): as the sequence (P22723 39-474) above
The data set can be described thus: Patch-clamp of recombinant wild-type α1β2γ2L GABAAR in HEK293 cells. It is filed as cell-based, rat α1, rat β2, mouse γ2L. On the procedure: as §2, §3

The next data set has as its system AMPA-receptor. The data set can be described thus: Kainate-evoked AMPA-receptor mediated currents in isolated neurons. Type of data set: cell-based. The procedure:
Recordings from histaminergic neurons in male Wistar rat (22–26 day old) or 30–60 day old mouse (SV129, histidine decarboxylase deficient HDC−/− or their wild type littermates) hypothalamic slices were performed as previously described. Slices were obtained between 9 and 11 a.m. In the beginning of whole-cell voltage clamp recordings TMN neurons were identified with the help of DIC microscopy and electrophysiological criteria as previously described. Inhibitory postsynaptic currents (IPSCs) were evoked by local stimulation through a bipolar stainless-steel stimulating electrode (50 µm; WPI, UK). The stimulation of axonal endings coming to TMN from ventrolateral preoptic area (VLPO) was done as described in [22]. […] Individual neurons were separated by vibrodissociation after brief preincubation with papain from the hypothalamic slices of mice or rats and identified as TMN neurons according to their size and shape. Identification was confirmed post hoc with the single-cell RT-PCR (all data presented in the manuscript were obtained from histidine decarboxylase-expressing neurons), [40]. TMN neurons from HDC−/− mice were identified by the expression of peripherin [16]. […] Membrane potentials were not corrected for liquid junction potential (5.6 mV, calculated with LJPCalc, Barry, 1994). […]

Several values for one entry are separate records, joined by “and”; a condition that tells them apart may be missing. Equal values may be shown once.

Broadly, the IC50 is the midpoint of a concentration-inhibition curve. On to `C[C@H](CCC(=O)O)[C@H]1CC[C@H]2[C@@H]3[C@@H](O)C[C@@H]4C[C@H](O)CC[C@]4(C)[C@H]3CC[C@]12C` [UDCA, ursodeoxycholic acid], for which the IC50 in data set [1] was 90 ± 5 µM; on α1β3 GABAA receptors (read-out: IC50 of block of GABA-evoked steady-state currents), 81 µM; in data set [5] (IC50 of inhibition of GABA currents, maximal GABA, WT) it was 85 µM and 84.7 µM. The figures for the “decay kinetics of sIPSCs” value in data set [2] (10 µM) and in data set [2] (30 µM) were “significantly accelerated the decay kinetics of sIPSCs in some” and “significantly reducing decay kinetics in all investigated neurons”, respectively. In data set [3], the “maximal steady-state GABA current” value is 54±2 % of control. In the data set with TGR5, the “sensitivity of TGR5 to UDCA” value is recorded as “rather insensitive”. In addition, the “serum peak UDCA concentration” value in data set [4] is around 18 ± 10 µM. At α1β3 GABAA receptors (maximal GABA), the “Hill coefficient nH of UDCA block” value came out at 0.65. Further, in data set [5] (UDCA 100 µM, n = 7), the “relative amplitude of maximal GABA-responses” value is given as 47±3 % of control. Further, the AMPA-receptor mediated currents entry with AMPA-receptor (100 µM) is given as “did not affect”. Also, in the data set on AMPA-receptor (up to […]), the “AMPA-receptor mediated currents (responses to 150 µM of kainate)” value is “did not affect”.

The values above are taken from paper PMC3412845, “Waking Action of Ursodeoxycholic Acid (UDCA) Involves Histamine and GABAA Receptor Block” (PLoS ONE, 2012).
